Results from ChEMBL document CHEMBL6121016, “Design, Synthesis, and Biological Evaluation of 1,3,4-Thiadiazole Derivatives as Novel Potent Peptide Deformylase Inhibitors for Combating Drug-Resistant Gram-Positive and -Negative Bacteria” (J Med Chem, 2025).
Values after ≈ are worked out from the molar mass of the structure shown.

system: Staphylococcus aureus; test: Antibacterial activity against methicillin-resistant Staphylococcus aureus ATCC 33591 after 16 to 18 hrs by broth microdilution method; format: functional; details: time 16-18 hrs

Compared with `CCCC[C@H](CN(O)C=O)C(=O)N1CCC[C@H]1c1nnc(-c2ncccc2F)s1`, `CCCC[C@H](CN(O)C=O)C(=O)N1CCC[C@H]1c1nnc(-c2ccccn2)s1` is 2-fold higher in MIC: 0.25 µg/mL (≈ 0.593 µM) for the first, 0.5 µg/mL (≈ 1.24 µM) for the second.

Going from `CCCC[C@H](CN(O)C=O)C(=O)N1CCC[C@H]1c1nnc(CCC)s1` to `CCCC[C@H](CN(O)C=O)C(=O)N1CCC[C@H]1c1nnc(-c2ccc3[nH]ccc3c2)s1`, the MIC rises from 1 µg/mL (≈ 2.71 µM) to 4 µg/mL (≈ 9.06 µM) (4-fold).

`CCCC[C@H](CN(O)C=O)C(=O)N1CCC[C@H]1c1nnc(-c2ccc(C(F)(F)F)cc2F)s1` and `CCCC[C@H](CN(O)C=O)C(=O)N1CCC[C@H]1c1nnc(-c2cc(OC)c(OC)c(OC)c2)s1` are the same in MIC: 0.25 µg/mL (≈ 0.512 µM) for the first, 0.25 µg/mL (≈ 0.508 µM) for the second.

system: Staphylococcus aureus; test: Antibacterial activity against methicillin-susceptible Staphylococcus aureus ATCC 25923 after 16 to 18 hrs by broth microdilution method; format: functional; details: time 16-18 hrs

First: CCCC[C@H](CN(O)C=O)C(=O)N1CCC[C@H]1c1nnc(-c2ncccc2F)s1
Second: CCCC[C@H](CN(O)C=O)C(=O)N1CCC[C@H]1c1nnc(-c2ccccn2)s1
The MIC of the first is 2-fold higher: 1 µg/mL (≈ 2.37 µM) for the first, 0.5 µg/mL (≈ 1.24 µM) for the second.

Going from `CCCC[C@H](CN(O)C=O)C(=O)N1CCC[C@H]1c1nnc(CCC)s1` to `CCCC[C@H](CN(O)C=O)C(=O)N1CCC[C@H]1c1nnc(-c2ccc3[nH]ccc3c2)s1`, the MIC rises from 2 µg/mL (≈ 5.43 µM) to 8 µg/mL (≈ 18.1 µM) (4-fold).

Compared with `CCCC[C@H](CN(O)C=O)C(=O)N1CCC[C@H]1c1nnc(-c2ccc(C(F)(F)F)cc2F)s1`, `CCCC[C@H](CN(O)C=O)C(=O)N1CCC[C@H]1c1nnc(-c2cc(OC)c(OC)c(OC)c2)s1` is 2-fold lower in MIC: 2 µg/mL (≈ 4.09 µM) for the first, 1 µg/mL (≈ 2.03 µM) for the second.

system: Staphylococcus aureus; test: Antibacterial activity against methicillin-susceptible Staphylococcus aureus ATCC 13709 after 16 to 18 hrs by broth microdilution method; format: functional; details: time 16-18 hrs

Going from `CCCC[C@H](CN(O)C=O)C(=O)N1CCC[C@H]1c1nnc(-c2ncccc2F)s1` to `CCCC[C@H](CN(O)C=O)C(=O)N1CCC[C@H]1c1nnc(-c2ccccn2)s1`, the MIC falls from 1 µg/mL (≈ 2.37 µM) to 0.5 µg/mL (≈ 1.24 µM) (2-fold).

First: CCCC[C@H](CN(O)C=O)C(=O)N1CCC[C@H]1c1nnc(CCC)s1
Second: CCCC[C@H](CN(O)C=O)C(=O)N1CCC[C@H]1c1nnc(-c2ccc3[nH]ccc3c2)s1
The MIC of the first is 2-fold lower: 2 µg/mL (≈ 5.43 µM) for the first, 4 µg/mL (≈ 9.06 µM) for the second.

Going from `CCCC[C@H](CN(O)C=O)C(=O)N1CCC[C@H]1c1nnc(-c2ccc(C(F)(F)F)cc2F)s1` to `CCCC[C@H](CN(O)C=O)C(=O)N1CCC[C@H]1c1nnc(-c2cc(OC)c(OC)c(OC)c2)s1`, the MIC falls from 2 µg/mL (≈ 4.09 µM) to 0.5 µg/mL (≈ 1.02 µM) (4-fold).

system: Staphylococcus epidermidis; test: Antibacterial activity against Staphylococcus epidermidis after 16 to 18 hrs by broth microdilution method; format: functional; details: time 16-18 hrs

Compared with `CCCC[C@H](CN(O)C=O)C(=O)N1CCC[C@H]1c1nnc(-c2ncccc2F)s1`, `CCCC[C@H](CN(O)C=O)C(=O)N1CCC[C@H]1c1nnc(-c2ccccn2)s1` is 2-fold lower in MIC: 1 µg/mL (≈ 2.37 µM) for the first, 0.5 µg/mL (≈ 1.24 µM) for the second.

Compared with `CCCC[C@H](CN(O)C=O)C(=O)N1CCC[C@H]1c1nnc(CCC)s1`, `CCCC[C@H](CN(O)C=O)C(=O)N1CCC[C@H]1c1nnc(-c2ccc3[nH]ccc3c2)s1` is 8-fold higher in MIC: 2 µg/mL (≈ 5.43 µM) for the first, 16 µg/mL (≈ 36.2 µM) for the second.

First: CCCC[C@H](CN(O)C=O)C(=O)N1CCC[C@H]1c1nnc(-c2ccc(C(F)(F)F)cc2F)s1
Second: CCCC[C@H](CN(O)C=O)C(=O)N1CCC[C@H]1c1nnc(-c2cc(OC)c(OC)c(OC)c2)s1
The MIC of the first is 2-fold higher: 4 µg/mL (≈ 8.19 µM) for the first, 2 µg/mL (≈ 4.06 µM) for the second.

system: Escherichia coli; test: Antibacterial activity against Escherichia coli ATCC 25922 after 16 to 18 hrs by broth microdilution method; format: functional; details: time 16-18 hrs

`CCCC[C@H](CN(O)C=O)C(=O)N1CCC[C@H]1c1nnc(-c2ncccc2F)s1` and `CCCC[C@H](CN(O)C=O)C(=O)N1CCC[C@H]1c1nnc(-c2ccccn2)s1` cannot be ordered by MIC: > 16 µg/mL for the first, 128 µg/mL (≈ 317 µM) for the second.

`CCCC[C@H](CN(O)C=O)C(=O)N1CCC[C@H]1c1nnc(CCC)s1` and `CCCC[C@H](CN(O)C=O)C(=O)N1CCC[C@H]1c1nnc(-c2ccc3[nH]ccc3c2)s1` cannot be ordered by MIC: > 16 µg/mL for the first, > 16 µg/mL for the second.

`CCCC[C@H](CN(O)C=O)C(=O)N1CCC[C@H]1c1nnc(-c2ccc(C(F)(F)F)cc2F)s1` and `CCCC[C@H](CN(O)C=O)C(=O)N1CCC[C@H]1c1nnc(-c2cc(OC)c(OC)c(OC)c2)s1` cannot be ordered by MIC: > 16 µg/mL for the first, > 16 µg/mL for the second.

system: Acinetobacter baumannii; test: Antibacterial activity against Acinetobacter baumannii Bio 34235 after 16 to 18 hrs by broth microdilution method; format: functional; details: time 16-18 hrs

Going from `CCCC[C@H](CN(O)C=O)C(=O)N1CCC[C@H]1c1nnc(-c2ncccc2F)s1` to `CCCC[C@H](CN(O)C=O)C(=O)N1CCC[C@H]1c1nnc(-c2ccccn2)s1`, the MIC rises from 16 µg/mL (≈ 38 µM) to 32 µg/mL (≈ 79.3 µM) (2-fold).

`CCCC[C@H](CN(O)C=O)C(=O)N1CCC[C@H]1c1nnc(CCC)s1` and `CCCC[C@H](CN(O)C=O)C(=O)N1CCC[C@H]1c1nnc(-c2ccc3[nH]ccc3c2)s1` cannot be ordered by MIC: > 16 µg/mL for the first, > 16 µg/mL for the second.

`CCCC[C@H](CN(O)C=O)C(=O)N1CCC[C@H]1c1nnc(-c2ccc(C(F)(F)F)cc2F)s1` and `CCCC[C@H](CN(O)C=O)C(=O)N1CCC[C@H]1c1nnc(-c2cc(OC)c(OC)c(OC)c2)s1` cannot be ordered by MIC: > 16 µg/mL for the first, > 16 µg/mL for the second.

system: Staphylococcus aureus; test: Antibacterial activity against methicillin-susceptible Staphylococcus aureus ATCC 29213 after 16 to 18 hrs by broth microdilution method; format: functional; details: time 16-18 hrs

`CCCC[C@H](CN(O)C=O)C(=O)N1CCC[C@H]1c1nnc(-c2ncccc2F)s1` and `CCCC[C@H](CN(O)C=O)C(=O)N1CCC[C@H]1c1nnc(-c2ccccn2)s1` are the same in MIC: 1 µg/mL (≈ 2.37 µM) for the first, 1 µg/mL (≈ 2.48 µM) for the second.

Going from `CCCC[C@H](CN(O)C=O)C(=O)N1CCC[C@H]1c1nnc(CCC)s1` to `CCCC[C@H](CN(O)C=O)C(=O)N1CCC[C@H]1c1nnc(-c2ccc3[nH]ccc3c2)s1`, the MIC rises from 2 µg/mL (≈ 5.43 µM) to 4 µg/mL (≈ 9.06 µM) (2-fold).

Going from `CCCC[C@H](CN(O)C=O)C(=O)N1CCC[C@H]1c1nnc(-c2ccc(C(F)(F)F)cc2F)s1` to `CCCC[C@H](CN(O)C=O)C(=O)N1CCC[C@H]1c1nnc(-c2cc(OC)c(OC)c(OC)c2)s1`, the MIC rises from 2 µg/mL (≈ 4.09 µM) to 4 µg/mL (≈ 8.12 µM) (2-fold).

system: Staphylococcus aureus; test: Antibacterial activity against methicillin-resistant Staphylococcus aureus ATCC 43300 after 16 to 18 hrs by broth microdilution method; format: functional; details: time 16-18 hrs

Going from `CCCC[C@H](CN(O)C=O)C(=O)N1CCC[C@H]1c1nnc(-c2ncccc2F)s1` to `CCCC[C@H](CN(O)C=O)C(=O)N1CCC[C@H]1c1nnc(-c2ccccn2)s1`, the MIC rises from 0.25 µg/mL (≈ 0.593 µM) to 0.5 µg/mL (≈ 1.24 µM) (2-fold).

Going from `CCCC[C@H](CN(O)C=O)C(=O)N1CCC[C@H]1c1nnc(CCC)s1` to `CCCC[C@H](CN(O)C=O)C(=O)N1CCC[C@H]1c1nnc(-c2ccc3[nH]ccc3c2)s1`, the MIC rises from 1 µg/mL (≈ 2.71 µM) to 4 µg/mL (≈ 9.06 µM) (4-fold).

Going from `CCCC[C@H](CN(O)C=O)C(=O)N1CCC[C@H]1c1nnc(-c2ccc(C(F)(F)F)cc2F)s1` to `CCCC[C@H](CN(O)C=O)C(=O)N1CCC[C@H]1c1nnc(-c2cc(OC)c(OC)c(OC)c2)s1`, the MIC falls from 1 µg/mL (≈ 2.05 µM) to 0.5 µg/mL (≈ 1.02 µM) (2-fold).

system: Klebsiella pneumoniae; test: Antibacterial activity against Klebsiella pneumoniae CICC 21611 after 16 to 18 hrs by broth microdilution method; format: functional; details: time 16-18 hrs

`CCCC[C@H](CN(O)C=O)C(=O)N1CCC[C@H]1c1nnc(-c2ncccc2F)s1` and `CCCC[C@H](CN(O)C=O)C(=O)N1CCC[C@H]1c1nnc(-c2ccccn2)s1` cannot be ordered by MIC: > 16 µg/mL for the first, 32 µg/mL (≈ 79.3 µM) for the second.

`CCCC[C@H](CN(O)C=O)C(=O)N1CCC[C@H]1c1nnc(CCC)s1` and `CCCC[C@H](CN(O)C=O)C(=O)N1CCC[C@H]1c1nnc(-c2ccc3[nH]ccc3c2)s1` cannot be ordered by MIC: > 16 µg/mL for the first, > 16 µg/mL for the second.

`CCCC[C@H](CN(O)C=O)C(=O)N1CCC[C@H]1c1nnc(-c2ccc(C(F)(F)F)cc2F)s1` and `CCCC[C@H](CN(O)C=O)C(=O)N1CCC[C@H]1c1nnc(-c2cc(OC)c(OC)c(OC)c2)s1` cannot be ordered by MIC: > 16 µg/mL for the first, > 16 µg/mL for the second.

system: Staphylococcus aureus; test: Antibacterial activity against methicillin-resistant Staphylococcus aureus Bio-090770 after 16 to 18 hrs by broth microdilution method; format: functional; details: time 16-18 hrs

First: CCCC[C@H](CN(O)C=O)C(=O)N1CCC[C@H]1c1nnc(-c2ncccc2F)s1
Second: CCCC[C@H](CN(O)C=O)C(=O)N1CCC[C@H]1c1nnc(-c2ccccn2)s1
The MIC of the first is 2-fold higher: 2 µg/mL (≈ 4.74 µM) for the first, 1 µg/mL (≈ 2.48 µM) for the second.

Compared with `CCCC[C@H](CN(O)C=O)C(=O)N1CCC[C@H]1c1nnc(CCC)s1`, `CCCC[C@H](CN(O)C=O)C(=O)N1CCC[C@H]1c1nnc(-c2ccc3[nH]ccc3c2)s1` is 2-fold higher in MIC: 4 µg/mL (≈ 10.9 µM) for the first, 8 µg/mL (≈ 18.1 µM) for the second.

`CCCC[C@H](CN(O)C=O)C(=O)N1CCC[C@H]1c1nnc(-c2ccc(C(F)(F)F)cc2F)s1` and `CCCC[C@H](CN(O)C=O)C(=O)N1CCC[C@H]1c1nnc(-c2cc(OC)c(OC)c(OC)c2)s1` are the same in MIC: 1 µg/mL (≈ 2.05 µM) for the first, 1 µg/mL (≈ 2.03 µM) for the second.

system: Acinetobacter baumannii; test: Antibacterial activity against drug-resistant Acinetobacter baumannii Bio 53272 after 16 to 18 hrs by broth microdilution method; format: functional; details: time 16-18 hrs

`CCCC[C@H](CN(O)C=O)C(=O)N1CCC[C@H]1c1nnc(-c2ncccc2F)s1` and `CCCC[C@H](CN(O)C=O)C(=O)N1CCC[C@H]1c1nnc(-c2ccccn2)s1` are the same in MIC: 16 µg/mL (≈ 38 µM) for the first, 16 µg/mL (≈ 39.7 µM) for the second.

`CCCC[C@H](CN(O)C=O)C(=O)N1CCC[C@H]1c1nnc(CCC)s1` and `CCCC[C@H](CN(O)C=O)C(=O)N1CCC[C@H]1c1nnc(-c2ccc3[nH]ccc3c2)s1` cannot be ordered by MIC: > 16 µg/mL for the first, > 16 µg/mL for the second.

`CCCC[C@H](CN(O)C=O)C(=O)N1CCC[C@H]1c1nnc(-c2ccc(C(F)(F)F)cc2F)s1` and `CCCC[C@H](CN(O)C=O)C(=O)N1CCC[C@H]1c1nnc(-c2cc(OC)c(OC)c(OC)c2)s1` cannot be ordered by MIC: > 16 µg/mL for the first, > 16 µg/mL for the second.
